# Assay results reported in the NIST ThermoML archive (doi:10.1016/j.jct.2012.08.004).
# Where “and” joins values, the source holds several entries; their conditions need not be identical. Equal entries are not always repeated. ± gives the expanded uncertainty stated by the source.
# Details: Crystal, Calculated from knudsen effusion weight loss
structure (smiles),measurement,setting,value
O=c1cc[nH]c(=S)[nH]1 [2-thiouracil],vapor or sublimation pressure,421.15 K,0.0001325 ± 1.4e-05 kPa and 0.000123 ± 1.3e-05 kPa and 0.0001236 ± 1.3e-05 kPa
same,vapor or sublimation pressure,423.21 K,0.0001553 ± 1.7e-05 kPa and 0.0001548 ± 1.6e-05 kPa and 0.0001474 ± 1.6e-05 kPa
same,vapor or sublimation pressure,425.22 K,0.0001891 ± 2e-05 kPa and 0.000178 ± 1.9e-05 kPa and 0.0001835 ± 1.9e-05 kPa
same,vapor or sublimation pressure,427.15 K,0.0002128 ± 2.3e-05 kPa and 0.0002092 ± 2.2e-05 kPa and 0.0002223 ± 2.4e-05 kPa
same,vapor or sublimation pressure,429.2 K,0.0002611 ± 2.8e-05 kPa and 0.0002488 ± 2.6e-05 kPa and 0.0002569 ± 2.7e-05 kPa
same,vapor or sublimation pressure,431.23 K,0.0003061 ± 3.2e-05 kPa and 0.0002978 ± 3.2e-05 kPa and 0.0003042 ± 3.2e-05 kPa
same,vapor or sublimation pressure,433.16 K,0.0003652 ± 3.9e-05 kPa and 0.0003584 ± 3.8e-05 kPa and 0.0003803 ± 4e-05 kPa
same,vapor or sublimation pressure,435.2 K,0.0004422 ± 4.7e-05 kPa and 0.0004176 ± 4.4e-05 kPa and 0.0004406 ± 4.7e-05 kPa
same,vapor or sublimation pressure,437.24 K,0.0005206 ± 5.5e-05 kPa and 0.0005016 ± 5.3e-05 kPa and 0.0005328 ± 5.6e-05 kPa
same,vapor or sublimation pressure,439.16 K,0.0005912 ± 6.3e-05 kPa and 0.0005684 ± 6e-05 kPa and 0.0006221 ± 6.6e-05 kPa
same,vapor or sublimation pressure,441.22 K,0.000693 ± 7.3e-05 kPa and 0.000706 ± 7.5e-05 kPa and 0.0006718 ± 7.1e-05 kPa
same,vapor or sublimation pressure,443.26 K,0.000834 ± 8.8e-05 kPa and 0.0008404 ± 8.9e-05 kPa and 0.0008041 ± 8.5e-05 kPa
Cc1c[nH]c(=S)[nH]c1=O [5-methyl-2-thiouracil],vapor or sublimation pressure,413.15 K,0.0001771 ± 1.9e-05 kPa and 0.0001698 ± 1.8e-05 kPa
same,vapor or sublimation pressure,415.25 K,0.0002113 ± 2.2e-05 kPa and 0.000217 ± 2.3e-05 kPa and 0.0002102 ± 2.2e-05 kPa
same,vapor or sublimation pressure,417.15 K,0.0002538 ± 2.7e-05 kPa and 0.0002498 ± 2.7e-05 kPa
same,vapor or sublimation pressure,417.24 K,0.0002506 ± 2.7e-05 kPa
same,vapor or sublimation pressure,419.23 K,0.0003129 ± 3.3e-05 kPa and 0.0003018 ± 3.2e-05 kPa and 0.0003131 ± 3.3e-05 kPa
same,vapor or sublimation pressure,421.24 K,0.0003606 ± 3.8e-05 kPa and 0.0003744 ± 4e-05 kPa
same,vapor or sublimation pressure,423.16 K,0.0004363 ± 4.6e-05 kPa and 0.0004213 ± 4.5e-05 kPa and 0.0004419 ± 4.7e-05 kPa
same,vapor or sublimation pressure,425.2 K,0.0005302 ± 5.6e-05 kPa and 0.000505 ± 5.4e-05 kPa and 0.0005103 ± 5.4e-05 kPa
same,vapor or sublimation pressure,427.22 K,0.0006121 ± 6.5e-05 kPa and 0.000601 ± 6.4e-05 kPa and 0.0006259 ± 6.6e-05 kPa
same,vapor or sublimation pressure,429.15 K,0.0007317 ± 7.8e-05 kPa and 0.0007071 ± 7.5e-05 kPa and 0.0007522 ± 8e-05 kPa
same,vapor or sublimation pressure,431.22 K,0.0008692 ± 9.2e-05 kPa and 0.0008414 ± 8.9e-05 kPa and 0.000852 ± 9e-05 kPa
same,vapor or sublimation pressure,433.24 K,0.001032 ± 0.00013 kPa and 0.001018 ± 0.00012 kPa and 0.001053 ± 0.00013 kPa
Cc1cc(=O)[nH]c(=S)[nH]1 [6-methyl-2-thiouracil],vapor or sublimation pressure,421.16 K,0.000106 ± 1.1e-05 kPa and 9.78e-05 ± 1e-05 kPa
same,vapor or sublimation pressure,423.15 K,0.0001239 ± 1.3e-05 kPa and 0.0001238 ± 1.3e-05 kPa and 0.0001199 ± 1.3e-05 kPa
same,vapor or sublimation pressure,425.17 K,0.000145 ± 1.5e-05 kPa and 0.000136 ± 1.4e-05 kPa and 0.0001411 ± 1.5e-05 kPa
same,vapor or sublimation pressure,427.16 K,0.0001623 ± 1.7e-05 kPa and 0.0001711 ± 1.8e-05 kPa and 0.0001818 ± 1.9e-05 kPa
same,vapor or sublimation pressure,429.17 K,0.0002135 ± 2.3e-05 kPa and 0.0002 ± 2.1e-05 kPa and 0.0002154 ± 2.3e-05 kPa
same,vapor or sublimation pressure,431.16 K,0.0002301 ± 2.7e-05 kPa and 0.0002471 ± 2.6e-05 kPa
same,vapor or sublimation pressure,431.19 K,0.0002525 ± 2.7e-05 kPa and 0.0002434 ± 2.6e-05 kPa and 0.0002473 ± 2.6e-05 kPa
same,vapor or sublimation pressure,433.2 K,0.0002894 ± 3.1e-05 kPa and 0.0002713 ± 2.9e-05 kPa and 0.0002913 ± 3.1e-05 kPa
same,vapor or sublimation pressure,435.22 K,0.0003418 ± 3.6e-05 kPa and 0.0003333 ± 3.5e-05 kPa and 0.0003423 ± 3.6e-05 kPa
same,vapor or sublimation pressure,437.17 K,0.0004046 ± 4.3e-05 kPa [middle of 5 runs]
same,vapor or sublimation pressure,439.2 K,0.0005278 ± 5.6e-05 kPa and 0.0004968 ± 5.3e-05 kPa and 0.0004799 ± 5.1e-05 kPa
same,vapor or sublimation pressure,439.22 K,0.0004689 ± 5e-05 kPa and 0.000478 ± 5.1e-05 kPa and 0.0004523 ± 4.8e-05 kPa
same,vapor or sublimation pressure,441.23 K,0.0005644 ± 6e-05 kPa [middle of 5 runs]
same,vapor or sublimation pressure,443.16 K,0.0006925 ± 7.3e-05 kPa and 0.0006452 ± 6.8e-05 kPa
same,vapor or sublimation pressure,443.17 K,0.0006889 ± 7.3e-05 kPa and 0.0006567 ± 7e-05 kPa
same,vapor or sublimation pressure,445.2 K,0.0007983 ± 8.5e-05 kPa and 0.0007787 ± 8.3e-05 kPa
same,vapor or sublimation pressure,445.21 K,0.000813 ± 8.6e-05 kPa and 0.0008056 ± 8.6e-05 kPa and 0.0007574 ± 8e-05 kPa
same,vapor or sublimation pressure,447.24 K,0.0009485 ± 0.0001 kPa [middle of 6 runs]
